“Also recorded” adds a separate entry of the source. Where a name gives a salt, the structure may show the parent alone. Marks after values point to notes of the source that are not given here.
Experiments:
[1] = system: MAPK pathway (p-bRAF, p-MEK), cleaved caspase 3 in Colo320HSR xenograft; assay: Pharmacodynamic analysis after a single dose, wild-type xenograft; format: in vivo; conditions: single 100 mpk dose of IPI-493, Colo320HSR; 100 mg/kg
Description: To further investigate a potential correlation between the effect of IPI-493 on molecular components of the RAS-RAF-ERK pathway and efficacy, pharmacodynamic analysis was performed on mutant bRAF (Colo205, Colo201) and wild-type (Colo320HSR) xenograft models after a single 100 mpk dose. […] Moreover, when p-MEK activity was assessed for all the CRC xengrafts, there was a clear delineation of sensitivity between mutant and wild type models, further supporting the hypothesis that MAPK pathway activity can be a surrogate for IPI-493 efficacy. […] Altogether, these provide rationale for a clinical path in this disease.

[2] = system: non-small cell lung cancer (NSCLC); assay: Phase II study of IPI-504 monotherapy in advanced NSCLC after EGFR TKI therapy: response and PFS; format: in vivo, human
Source text: Patients with advanced NSCLC, prior treatment with EGFR TKIs, and tumor tissue available for molecular genotyping were enrolled in this prospective, non-randomized, multicenter, phase II study of IPI-504 monotherapy. The primary outcome was objective response rate. Secondary aims included safety, progression-free survival (PFS), and analysis of activity by molecular subtypes.
Each genotype-defined arm of the trial (mutant EGFR cohort or wild-type EGFR cohort) functioned as a Simon two-stage study with planned interim evaluation after 10 patients and expanded enrollment of an additional 19 patients (a total of 29 patients) if there was at least one patient with a complete response (CR), partial response (PR) or stable disease (SD) lasting 3 months. As pre-defined EGFR genotype was not a requirement at study entry, the trial remained open until both cohorts fully enrolled, which led to over-enrollment of the wild-type arm. Secondary aims included describing the safety and progression-free survival (PFS) of the regimen, and examining molecular markers associated with response.
Patients were recruited between December 2007 and May 2009 from ten US cancer centers. To be eligible, patients had to have stage IIIB (with pleural effusion), or stage 1V NSCLC with progression on EGFR TKI therapy at some point in their history; adequate baseline renal, hepatic, and bone marrow function; Eastern Cooperative Oncology Group performance status (PS) of 0-2; measurable disease by RECIST 1.0; no active or untreated central nervous system (brain) metastases; no significant cardiac conduction abnormalities; no ongoing keratoconjunctivitis; and either previously defined EGFR genotype or sufficient tumor tissue to undergo genotype assessment, for example, EGFR mutation analysis (EGFR status not required for study entry) (Therasse, P. et al. (2000) J Natl Cancer Inst 92, 205-216; Oken, M. M. et al. (1982) Am J Clin Oncol. 5:649-655). Patients had experienced prior EGFR TKI therapy and there was no limit on prior therapies. All patients signed a written informed consent and the study was monitored by all local institutional review boards. Funding for the trial was provided by Infinity Pharmaceuticals, Inc.
Treatment consisted of a 30-minute infusion of intravenous IPI-504 on days 1, 4, 8 and 11 of a 21-day cycle. Therapy continued until progressive disease (PD), intolerable side effects, or elective withdrawal. A total of 76 patients were enrolled. The starting dose was 400 mg/m^2 for 75 patients. In April 2009, the dose for patients who were on study (19 patients) was lowered to 225 mg/m^2, due to hepatotoxicities observed at the 400 mg/m^2 dose in a separate trial of IPI-504 in patients with gastrointestinal stromal tumors (GIST) (Demetri G. D. et al. Final results from a phase III study of IPI-504 (retaspimycin hydrochloride) versus placebo in patients with gastrointestinal stromal tumors (GIST) following failure of kinase inhibitor therapies. Paper presented at: Gastrointestinal Cancers Symposium; Jan. 22-24, 2010, 2010; Orlando, Fla.), and the last enrolled patient started at a dose of 225 mg/m^2.
All patients were assessed for safety by history, physical examination, blood chemistries, liver function tests and blood counts, at baseline and prior to each infusion. Amylase and lipase were assessed if there were symptoms of pancreatitis. Adverse events were graded using the NCl common toxicity criteria version 3.0 (NCl. Common terminology criteria for adverse events (CTCAE) version 3.0 Aug. 9, 2006). Slit lamp eye examinations were performed during screening and electrocardiograms were obtained during screening and before and after the first infusion, to evaluate for keratitis and QTc prolongation, respectively. Radiographic evaluation of tumor response by CT-scan was performed after every 2 cycles. All films were reviewed and independently assessed by a central radiology core laboratory. […]

SMILES: CO[C@H]1/C=C\C=C(/C)C(=O)NC2=CC(=O)C(N)=C(C[C@@H](C)C[C@H](OC)[C@H](O)[C@@H](C)/C=C(\C)[C@@H]1OC(N)=O)C2=O [IPI-493, 17-AG]
- p-bRAF, p-MEK, cleaved caspase 3 in wild type model [1]: little effect of IPI-493 administration; also recorded: Minimal changes

SMILES: C=CCNc1c(O)cc2c(O)c1C[C@@H](C)C[C@H](OC)[C@H](O)[C@@H](C)/C=C(\C)[C@H](OC(N)=O)[C@@H](OC)/C=C\C=C(/C)C(=O)N2 [IPI-504, retaspimycin hydrochloride]
- time on IPI-504 without progression or death ([2]; 3 patients with ALK rearrangements): approximately 7 months
- RECIST Stable Disease or better for at least 3 months ([2]; ALK No Rearrangement Detected): 3 (25) n [%]
- Objective Response Rate (All PRs) ([2]; ALK No Rearrangement Detected, 12 patients): 1 (8) n [%]
- Median PFS ([2]; ALK No Rearrangement Detected, no unit in table): 2.43
- RECIST Stable Disease or better for at least 3 months ([2]; ALK Rearrangement Detected): 3 (100) n [%]
- Objective Response Rate (All PRs) ([2]; ALK Rearrangement Detected, 3 patients): 2 (67) n [%]
- RECIST Stable Disease or better for at least 3 months ([2]; EGFR Mutant): 6 (21) n [%]
- Objective Response Rate (All PRs) ([2]; EGFR Mutant, 28 patients): 1 (4) n [%]
- Median PFS ([2]; EGFR Mutant, no unit in table): 2.76
- RECIST Stable Disease or better for at least 3 months ([2]; EGFR Wild Type): 10 (25) n [%]
- Objective Response Rate (All PRs) ([2]; EGFR Wild Type, 40 patients): 4 (10) n [%]
- Median PFS ([2]; EGFR Wild Type, no unit in table): 2.86
- response rate ([2]; EGFR wild-type patients): 10%
- RECIST Stable Disease or better for at least 3 months ([2]; KRAS Mutant): 5 (42) n [%]
- Objective Response Rate (All PRs) ([2]; KRAS Mutant, 12 patients): 0 (0) n [%]
- Median PFS ([2]; KRAS Mutant, no unit in table): 3.91
- RECIST Stable Disease or better for at least 3 months ([2]; KRAS Wild Type): 4 (15) n [%]
- Objective Response Rate (All PRs) ([2]; KRAS Wild Type, 26 patients): 3 (12)* n [%]
- Median PFS ([2]; KRAS Wild Type, no unit in table): 2.86
- response rate ([2]; KRAS wild-type patients): 12%
- Objective Response Rate (All PRs) ([2]; Total, 76 patients): 5 (7) n [%]
- RECIST Stable Disease or better for at least 3 months ([2]; Total, 76 patients): 18 (24) n [%]
- Median PFS ([2]; Total, no unit in table, months): 2.86
- Median PFS ([2]; all patients): 2.86 months
- patients with partial response ([2]; of the 3 patients with an ALK gene rearrangement): 2 patients
- overall response rate ([2]; overall study population): 7%
- response rate ([2]; patients with EGFR mutations): 4%
- response rate ([2]; patients with an ALK rearrangement): 67%
- reduction in tumor size ([2]; third patient with ALK rearrangement (stable disease)): 24%

— patent publication US20110118298A1, “COMPOSITIONS, KITS, AND METHODS FOR IDENTIFICATION, ASSESSMENT, PREVENTION, AND THERAPY OF CANCER” (INFINITY PHARMACEUTICALS, INC., priority 2009, published 2011)
